Experimental data from paper doi:10.1101/2025.03.30.646192v1 (biorxiv, 2025).
Where two headings read alike, the source gives them in different places.

Columns and labels:
[1] = target: T1, D2R (D2 dopamine receptor; HA-hDRD2-SmBiT) (Homo sapiens, UniProt P14416); test: competition with [3H]-raclopride, membranes
[2] = target: T1, D2R (D2 dopamine receptor; HA-hDRD2-SmBiT); test: competition with [3H]-raclopride, membranes; remark: listed apart in the source

T1 sequence (P14416 whole entry): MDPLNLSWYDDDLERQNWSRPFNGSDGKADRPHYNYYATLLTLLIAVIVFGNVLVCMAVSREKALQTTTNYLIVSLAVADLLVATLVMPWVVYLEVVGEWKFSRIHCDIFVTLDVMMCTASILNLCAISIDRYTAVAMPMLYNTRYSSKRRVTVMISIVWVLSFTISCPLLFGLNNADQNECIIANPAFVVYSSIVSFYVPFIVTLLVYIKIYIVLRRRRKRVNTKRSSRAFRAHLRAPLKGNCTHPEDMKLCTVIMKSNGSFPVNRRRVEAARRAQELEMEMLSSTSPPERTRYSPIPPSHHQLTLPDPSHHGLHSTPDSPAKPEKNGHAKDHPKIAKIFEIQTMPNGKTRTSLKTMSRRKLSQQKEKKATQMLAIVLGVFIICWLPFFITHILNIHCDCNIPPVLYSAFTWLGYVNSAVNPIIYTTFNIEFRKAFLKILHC

Row | Structure (SMILES) | Ki [1] | further results
1 | CNC[C@H](O)c1ccc(O)c(O)c1 [adrenaline] | 7.08 µM | –
2 | NCC(O)c1ccccc1 (stereo not drawn) [hydroxyphenethylamine] | 195 µM | –
3 | NCCc1cccc(O)c1 [m-tyramine] | – | Ki [2]: 1.86 µM
4 | CNCCc1ccc(O)c(O)c1 [methyldopamine] | 0.0603 µM | –
5 | CNCCc1ccccc1 [n-methyl-phenetylamine] | 17 µM | –
6 | NC[C@H](O)c1ccc(O)c(O)c1 [noradrenaline] | – | Ki [2]: 9.55 µM
7 | NCC(O)c1cccc(O)c1 (stereo not drawn) [norphenylephrine] | 17 µM | –
8 | NC[C@H](O)c1ccc(O)cc1 [octopamine] | 347 ± 60.1 µM | –
9 | NCCc1ccc(O)cc1 [p-tyramine] | – | Ki [2]: 77.6 µM
10 | NCCc1ccccc1 [phenetylamine] | – | Ki ([1]; pH 7.4, RT, 10 mM MgCl2, orthosteric): 4.73 ± 0.52 pKi
11 | CNC[C@H](O)c1cccc(O)c1 [phenhyleprine] | 15.1 µM | –
12 | CNCC(O)c1ccc(O)cc1 (stereo not drawn) [synephrine] | 87.1 µM | –
